Source: patent publication US11795460B2, “Compositions and methods for TTR gene editing and treating ATTR amyloidosis” (Intellia Therapeutics, Inc., priority 2017, dated 2023)
Strand notation (5' to 3'): a small letter for the sugar, then the base; units joined by * are phosphorothioate-linked, units joined directly phosphodiester-linked; [ ] holds rarer units or linkages, { } end groups; capitals alone tell only the bases. m = 2'-O-methyl; r = 2'-OH (RNA)

Assays:
TTR [1] = assay: TTR editing in HUH7 cells transfected with Spy Cas9 mRNA and dgRNAs (Table 5); type: cell-based, human; conditions: HUH7 cells co-transfected with Spy Cas9 mRNA (SEQ ID NO:2) and dgRNAs
Experimental: HUH7 cell line. The human hepatocellular carcinoma cell line HUH7 (Japanese Collection of Research Bioresources Cell Bank, Cat. JCRB0403) was cultured in DMEM media supplemented with 10% fetal bovine serum. Cells were plated on at a density of 15,000 cells/well in a 96-well plate 20 hours prior to transfection. Cells were transfected with Lipofectamine MessengerMAX (ThermoFisher, Cat. LMRNA003) per the manufacturer's protocol. Cells were sequentially transfected with a lipoplex containing Spy Cas9 mRNA (100 ng), MessengerMAX (0.3 μL/well) and OptiMem followed by a separate lipoplex containing individual crRNA (25 nM), tracer RNA (25 nM), MessengerMAX (0.3 μL/well) and OptiMem.
Transfected cells were harvested post-transfection at 24, 48, or 72 hours. The genomic DNA was extracted from each well of a 96-well plate using 50 μL/well BuccalAmp DNA Extraction solution (Epicentre, Cat. QE09050) per manufacturer's protocol. All DNA samples were subjected to PCR and subsequent NGS analyses, as described herein.
To quantitatively determine the efficiency of editing at the target location in the genome, sequencing was utilized to identify the presence of insertions and deletions introduced by gene editing.
Primers were designed around the target site within the gene of interest (e.g. TTR), and the genomic area of interest was amplified.
Additional PCR was performed per the manufacturer's protocols (Illumina) to add chemistry for sequencing. The amplicons were sequenced on an Illumina MiSeq instrument. The reads were aligned to a reference genome (e.g., the human reference genome (hg38), the cynomologus reference genome (mf5), the rat reference genome (rn6), or the mouse reference genome (mm10)) after eliminating those having low quality scores. The resulting files containing the reads were mapped to the reference genome (BAM files), where reads that overlapped the target region of interest were selected and the number of wild type reads versus the number of reads which contain an insertion, substitution, or deletion was calculated.
The editing percentage (e.g., the “editing efficiency” or “percent editing” or “indel frequency”) is defined as the total number of sequence reads with insertions/deletions (“indels”) or substitutions over the total number of sequence reads, including wild type.
Guides in dgRNA format targeting human TTR and the cynomologus matched sequences were delivered to HEK293 Cas9, HUH7 and HepG2 cell lines, as well as primary human hepatocytes and primary cynomolgus monkey hepatocytes as described in Example 1. Percent editing was determined for crRNAs comprising each guide sequence across each cell type and the guide sequences were then rank ordered based on highest % edit. The screening data for the guide sequences in Table 1 in all five cell lines are listed below (Table 4 through 11).

TTR [2] = assay: TTR editing in primary human hepatocytes transfected with Spy Cas9 protein (RNP) loaded with dgRNAs (Table 8); type: cell-based; conditions: dgRNA transfected with Spy Cas9 protein (RNP)
How it was run: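 Primary human hepatocytes were lipofected (RNAiMAX) with RNP of Spy Cas9 (10 nM) plus pre-annealed crRNA (10 nM) and trRNA (10 nM) and harvested 24, 48 or 72 h later. Target-site amplicons were sequenced on Illumina MiSeq and aligned to hg38; percent editing = reads with indels or substitutions over total reads.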

off-target genomic sites = assay: Off-target oligo insertion based assay in HEK293_Cas9 cells, dgRNAs and sgRNAs (Tables 23, 24); type: cell-based, human; conditions: for # Sites (off-target integration sites detected): Table 24, TTR sgRNAs in HekCas9 cells, insertion detection method; for # Sites in HekCas9 cells (Example 5): Table 30, TTR sgRNAs, repeated from Example 5 for comparison
Experimental: An oligo insertion based assay (See, e.g., Tsai et al., Nature Biotechnology 33, 187-197; 2015) was used to determine potential off-target genomic sites cleaved by Cas9 targeting TTR. Forty-five dgRNAs from Table 1 (and two control guides with known off-target profiles) were screened in the HEK293 Cas9 cells. The human embryonic kidney adenocarcinoma cell line HEK293 constitutively expressing Spy Cas9 (“HEK293_Cas9”) was cultured in DMEM media supplemented with 10% fetal bovine serum and 500 μg/ml G418. Cells were plated at a density of 30,000 cells/well in a 96-well plate 24 hours prior to transfection. Cells were transfected with Lipofectamine RNAiMAX (ThermoFisher, Cat. 13778150) per the manufacturer's protocol. Cells were transfected with a lipoplex containing individual crRNA (15 nM), trRNA (15 nM), and donor oligo with (10 nM) Lipofectamine RNAiMAX (0.3 μL/well) and OptiMem. Cells were lysed 24 hours post transfection and genomic DNA was extracting using Zymo's Quick gDNA 96 Extraction kit (catalog #D3012) following the manufacturer's recommended protocol. The gDNA was quantified using the Qubit High Sensitivity dsDNA kit (Life Technologies). Libraries were prepared per the previously described method in Tsai et al, 2015 with minor modifications. Sequencing was performed on Illumina's MiSeq and HiSeq 2500. The assay identified potential off-target sites for some of the crRNAs which are plotted in FIG. 2.
Additionally, a subset of the guides was assessed for off-target potential as modified sgRNAs in the Hek_Cas9 cells via the oligo based insertion method described above. The off-target results were plotted in FIG. 4.

AAUAGGAGUAGGGGCUCAGC (tested as dual guide RNA, chemistry not given here) [CR003384]
Avg % Deletion (TTR [1]): 16.29%
Avg % Edit (TTR [1]): 17.03%
Avg % Insert (TTR [1]): 0.84%
Avg % Deletion (TTR [2]): 0.17%
Avg % Edit (TTR [2]): 3.56%
Avg % Insert (TTR [2]): 3.39%

ACCUCUGCAUGCUCAUGGAA (tested as dual guide RNA, chemistry not given here) [CR003371]
Avg % Deletion (TTR [1]): 35.65%
Avg % Edit (TTR [1]): 40.47%
Avg % Insert (TTR [1]): 6.07%
Avg % Deletion (TTR [2]): 1.57%
Avg % Edit (TTR [2]): 18.80%
Avg % Insert (TTR [2]): 17.23%

AUGCAGCUCUCCAGACUCAC (tested as dual guide RNA, chemistry not given here) [CR003358]
Avg % Deletion (TTR [1]): 26.60%
Avg % Edit (TTR [1]): 36.50%
Avg % Insert (TTR [1]): 10.53%
Avg % Deletion (TTR [2]): 5.67%
Avg % Edit (TTR [2]): 31.62%
Avg % Insert (TTR [2]): 25.95%

CCUCUGCAUGCUCAUGGAAU (tested as dual guide RNA, chemistry not given here) [CR003370]
Avg % Deletion (TTR [1]): 35.55%
Avg % Edit (TTR [1]): 39.16%
Avg % Insert (TTR [1]): 4.83%
Avg % Deletion (TTR [2]): 1.26%
Avg % Edit (TTR [2]): 20.06%
Avg % Insert (TTR [2]): 18.80%

CUGAGGAGGAAUUUGUAGAA (tested as dual guide RNA, chemistry not given here) [CR003364]
Avg % Deletion (TTR [1]): 23.03%
Avg % Edit (TTR [1]): 47.13%
Avg % Insert (TTR [1]): 24.68%
Avg % Deletion (TTR [2]): 11.36%
Avg % Edit (TTR [2]): 35.29%
Avg % Insert (TTR [2]): 23.93%

CUGGUAUUUGUGUCUGAGGC (tested as dual guide RNA, chemistry not given here) [CR003341]
Avg % Deletion (TTR [1]): 13.20%
Avg % Edit (TTR [1]): 20.58%
Avg % Insert (TTR [1]): 7.78%
Avg % Deletion (TTR [2]): 5.02%
Avg % Edit (TTR [2]): 19.66%
Avg % Insert (TTR [2]): 14.64%

GCAUGGGCUCACAACUGAGG (tested as dual guide RNA, chemistry not given here) [CR003362]
Avg % Deletion (TTR [1]): 23.76%
Avg % Edit (TTR [1]): 26.43%
Avg % Insert (TTR [1]): 3.43%
Avg % Deletion (TTR [2]): 0.56%
Avg % Edit (TTR [2]): 11.65%
Avg % Insert (TTR [2]): 11.10%

GCUGCAUGGGCUCACAACUG (tested as dual guide RNA, chemistry not given here) [CR003361]
Avg % Deletion (TTR [1]): 22.44%
Avg % Edit (TTR [1]): 28.68%
Avg % Insert (TTR [1]): 6.84%
Avg % Deletion (TTR [2]): 0.56%
Avg % Edit (TTR [2]): 13.08%
Avg % Insert (TTR [2]): 12.52%

UACUCACCUCUGCAUGCUCA (tested as dual guide RNA, chemistry not given here) [CR003372]
Avg % Deletion (TTR [1]): 17.25%
Avg % Edit (TTR [1]): 21.52%
Avg % Insert (TTR [1]): 4.89%
Avg % Deletion (TTR [2]): 1.81%
Avg % Edit (TTR [2]): 17.56%
Avg % Insert (TTR [2]): 15.74%

B1: G000481: TTR sgRNA modified sequence, Human, SEQ ID No. 88; guide sequence of CR003345 (nucleic acid)
guide: mU*mC*mU*rArGrArArCrUrUrUrGrArCrCrArUrCrArGrGrUrUrUrUrArGrAmGmCmUmAmGmAmAmAmUmAmGmCrArArGrUrUrArArArArUrArArGrGrCrUrArGrUrCrCrGrUrUrArUrCrAmAmCmUmUmGmAmAmAmAmAmGmUmGmGmCmAmCmCmGmAmGmUmCmGmGmUmGmCmU*mU*mU*mU
# Sites (off-target integration sites detected) (off-target genomic sites): 3
# Sites in HekCas9 cells (Example 5) (off-target genomic sites): 3

B2: G000489: TTR sgRNA modified sequence, Human, SEQ ID No. 96; guide sequence of CR003344 (nucleic acid)
guide: mU*mU*mU*rGrArCrCrArUrCrArGrArGrGrArCrArCrUrGrUrUrUrUrArGrAmGmCmUmAmGmAmAmAmUmAmGmCrArArGrUrUrArArArArUrArArGrGrCrUrArGrUrCrCrGrUrUrArUrCrAmAmCmUmUmGmAmAmAmAmAmGmUmGmGmCmAmCmCmGmAmGmUmCmGmGmUmGmCmU*mU*mU*mU
# Sites (off-target integration sites detected) (off-target genomic sites): 19
# Sites in HekCas9 cells (Example 5) (off-target genomic sites): 19

B3: G000482: TTR sgRNA modified sequence, Human, SEQ ID No. 89; guide sequence of CR003365 (nucleic acid)
guide: mU*mG*mU*rArGrArArGrGrGrArUrArUrArCrArArArGrGrUrUrUrUrArGrAmGmCmUmAmGmAmAmAmUmAmGmCrArArGrUrUrArArArArUrArArGrGrCrUrArGrUrCrCrGrUrUrArUrCrAmAmCmUmUmGmAmAmAmAmAmGmUmGmGmCmAmCmCmGmAmGmUmCmGmGmUmGmCmU*mU*mU*mU
# Sites (off-target integration sites detected) (off-target genomic sites): 13
# Sites in HekCas9 cells (Example 5) (off-target genomic sites): 13

B4: G000480: TTR sgRNA modified sequence, Human, SEQ ID No. 87; guide sequence of CR003353 (nucleic acid)
guide: mA*mA*mA*rGrGrCrUrGrCrUrGrArUrGrArCrArCrCrUrGrUrUrUrUrArGrAmGmCmUmAmGmAmAmAmUmAmGmCrArArGrUrUrArArArArUrArArGrGrCrUrArGrUrCrCrGrUrUrArUrCrAmAmCmUmUmGmAmAmAmAmAmGmUmGmGmCmAmCmCmGmAmGmUmCmGmGmUmGmCmU*mU*mU*mU
# Sites (off-target integration sites detected) (off-target genomic sites): 11
# Sites in HekCas9 cells (Example 5) (off-target genomic sites): 11

B5: G000486: TTR sgRNA modified sequence, Human, SEQ ID No. 93; guide sequence of CR003339 (nucleic acid)
guide: mA*mC*mA*rCrArArArUrArCrCrArGrUrCrCrArGrCrArGrUrUrUrUrArGrAmGmCmUmAmGmAmAmAmUmAmGmCrArArGrUrUrArArArArUrArArGrGrCrUrArGrUrCrCrGrUrUrArUrCrAmAmCmUmUmGmAmAmAmAmAmGmUmGmGmCmAmCmCmGmAmGmUmCmGmGmUmGmCmU*mU*mU*mU
# Sites (off-target integration sites detected) (off-target genomic sites): 12
# Sites in HekCas9 cells (Example 5) (off-target genomic sites): 12

B6: G000494: TTR sgRNA modified sequence, Human, SEQ ID No. 101; guide sequence of CR003360 (nucleic acid)
guide: mG*mU*mG*rArGrUrCrUrGrGrArGrArGrCrUrGrCrArUrGrUrUrUrUrArGrAmGmCmUmAmGmAmAmAmUmAmGmCrArArGrUrUrArArArArUrArArGrGrCrUrArGrUrCrCrGrUrUrArUrCrAmAmCmUmUmGmAmAmAmAmAmGmUmGmGmCmAmCmCmGmAmGmUmCmGmGmUmGmCmU*mU*mU*mU
# Sites (off-target integration sites detected) (off-target genomic sites): 4
# Sites in HekCas9 cells (Example 5) (off-target genomic sites): 4

B7: G000499: TTR sgRNA modified sequence, Human, SEQ ID No. 106; guide sequence of CR005303 (nucleic acid)
guide: mU*mG*mA*rArUrCrCrArArGrUrGrUrCrCrUrCrUrGrArGrUrUrUrUrArGrAmGmCmUmAmGmAmAmAmUmAmGmCrArArGrUrUrArArArArUrArArGrGrCrUrArGrUrCrCrGrUrUrArUrCrAmAmCmUmUmGmAmAmAmAmAmGmUmGmGmCmAmCmCmGmAmGmUmCmGmGmUmGmCmU*mU*mU*mU
# Sites (off-target integration sites detected) (off-target genomic sites): 4
# Sites in HekCas9 cells (Example 5) (off-target genomic sites): 4

B8: G000488: TTR sgRNA modified sequence, Human, SEQ ID No. 95; guide sequence of CR003346 (nucleic acid)
guide: mA*mA*mA*rGrUrUrCrUrArGrArUrGrCrUrGrUrCrCrGrGrUrUrUrUrArGrAmGmCmUmAmGmAmAmAmUmAmGmCrArArGrUrUrArArArArUrArArGrGrCrUrArGrUrCrCrGrUrUrArUrCrAmAmCmUmUmGmAmAmAmAmAmGmUmGmGmCmAmCmCmGmAmGmUmCmGmGmUmGmCmU*mU*mU*mU
# Sites (off-target integration sites detected) (off-target genomic sites): 0
# Sites in HekCas9 cells (Example 5) (off-target genomic sites): 0
